Results published in ChEMBL document CHEMBL4431300 (Medchemcomm, 2016).
Values after ≈ are worked out from the molar mass of the structure shown. Active and inactive are the calls of the source. No cut-off for these calls is given here.

Tests used:
Chorioallantoic membrane [1] = experiment: (§1) Antiangiogenic activity in chicken fertilized egg chorioallantoic membrane assessed as avascular zone by measuring reduction in number of branching points at 49 ug/kg/day, iv administered as bolus dose on embryo development day 11 for 3 days by epifluorescence microscopic analysis relative to control; format: functional; settings: Gallus gallus
[2] = Antiproliferative activity against human A2780cis cells after 72 hrs at 37 degC by MTT assay; format: functional, cell-based
HEK293 = experiment: Antiproliferative activity against HEK293 cells after 72 hrs at 37 degC by CellTiter-Glo luminescence assay; format: cell-based; settings: Homo sapiens, HEK293, 72 h
[3] = Antiproliferative activity against immortalized human ECRF24 cells after 72 hrs at 37 degC by CellTiter-Glo luminescence assay; format: functional; settings: ECRF24, 72 h
A2780 [4] = experiment: Antiproliferative activity against human A2780 cells after 72 hrs at 37 degC by MTT assay; format: functional, cell-based; settings: A2780, 72 h
Chorioallantoic membrane [5] = experiment: (§2) Antiangiogenic activity in chicken fertilized egg chorioallantoic membrane assessed as inhibition of vascular sprout formation at 435 ug/kg/day, iv administered as single bolus dose 1 min post 5 Jcm'-2 light irradiation on embryo development day 11 measured 24 hrs post dose by epifluorescence microscopic analysis; format: functional, organism-based; settings: Gallus gallus
A2780 [6] = experiment: Antitumor activity against human A2780 cells implanted in chicken fertilized egg chorioallantoic membrane assessed as tumor growth inhibition at 64 ug/kg/day, iv administered as bolus dose on embryo development day 11 for 3 days measured up to 8 days post treatment relative to control; format: functional; settings: Gallus gallus, read-out: TGI
A2780 [7] = experiment: Antitumor activity against human A2780 cells implanted in chicken fertilized egg chorioallantoic membrane assessed as tumor growth inhibition at 435 ug/kg/day, iv administered as bolus dose on embryo development day 11 for 3 days measured up to 8 days post treatment relative to control; format: functional; settings: Gallus gallus, read-out: TGI
Homo sapiens = species: Homo sapiens; experiment: Antimigratory activity against human ECRF24 cells assessed as wound closure at 6 to 50 uM after 7 hrs by wound healing assay; format: functional, cell-based
Chorioallantoic membrane [8] = experiment: as §1, with “36” for “49”; format: functional; settings: Gallus gallus
Chorioallantoic membrane [9] = experiment: as §2, with “64” for “435”; format: functional, organism-based; settings: Gallus gallus
Chorioallantoic membrane [10] = experiment: as §1, with “20” for “49”; format: functional; settings: Gallus gallus
[11] = Antiproliferative activity against embryonic stem cells in intact mouse embryoid bodies; format: functional, cell-based
A2780 [12] = experiment: Antitumor activity against human A2780 cells implanted in chicken fertilized egg chorioallantoic membrane assessed as tumor growth inhibition at 487 ug/kg/day, iv administered as bolus dose on embryo development day 11 for 3 days measured up to 8 days post treatment relative to control; format: functional; settings: Gallus gallus, read-out: TGI
Chorioallantoic membrane [13] = experiment: as §2, with “inhibition” for “inhibition of”, “97” for “435”; format: functional, organism-based; settings: Gallus gallus
Chorioallantoic membrane [14] = experiment: as §2, with “487” for “435”; format: functional, organism-based; settings: Gallus gallus
Chorioallantoic membrane [15] = experiment: as §1, with “55” for “49”; format: functional; settings: Gallus gallus

O=C(CCCc1ccc(N(CCCl)CCCl)cc1)OCCC(F)(F)C(F)(F)C(F)(F)C(F)(F)C(F)(F)C(F)(F)C(F)(F)C(F)(F)F
inhibition in vivo at 0.049 mg/kg/day (Chorioallantoic membrane [1]): 29% | IC50 [2]: 25 µM | IC50 (HEK293): 57 µM | IC50 [3]: 52 µM | IC50 (A2780 [4]): 38 µM

CCCCCCCCCCCCCCCCCCOC(=O)CCCc1ccc(N(CCCl)CCCl)cc1
IC50 [2]: > 200 µM | inhibition (Chorioallantoic membrane [5]): inactive | IC50 (HEK293): > 200 µM | inhibition in vivo at 0.064 mg/kg/day (A2780 [6]): 53% | inhibition in vivo at 0.435 mg/kg/day (A2780 [7]): 49.5% | Activity (Homo sapiens): inactive | inhibition in vivo at 0.036 mg/kg/day (Chorioallantoic membrane [8]): 20% | IC50 [3]: 89 µM | IC50 (A2780 [4]): > 200 µM | inhibition (Chorioallantoic membrane [9]): Active

O=C(O)CCCc1ccc(N(CCCl)CCCl)cc1 [CHLORAMBUCIL]
IC50 [2]: 43 µM | IC50 (HEK293): 25 µM | inhibition in vivo at 0.02 mg/kg/day (Chorioallantoic membrane [10]): 33% | IC50 [11]: 1.25 µg/mL (≈ 4.11 µM) | IC50 [3]: 8 µM | IC50 (A2780 [4]): 12 µM

O=C(CCCc1ccc(N(CCCl)CCCl)cc1)OCCC(F)(F)C(F)(F)C(F)(F)C(F)(F)C(F)(F)C(F)(F)C(F)(F)C(F)(F)C(F)(F)C(F)(F)F
inhibition in vivo at 0.487 mg/kg/day (A2780 [12]): 70% | IC50 [2]: > 200 µM | IC50 (HEK293): > 200 µM | inhibition (Chorioallantoic membrane [13]): inactive | Activity (Homo sapiens): inactive | IC50 [3]: 66 µM | inhibition (Chorioallantoic membrane [14]): inactive | IC50 (A2780 [4]): > 200 µM | inhibition in vivo at 0.055 mg/kg/day (Chorioallantoic membrane [15]): 59%
